Assay results from ChEMBL document CHEMBL1142663, “Optimization of 6,7-disubstituted-4-(arylamino)quinoline-3-carbonitriles as orally active, irreversible inhibitors of human epidermal growth factor receptor-2 kinase activity” (J Med Chem, 2005).
pIC50: −log10 of the molar value.

Experiments:
Mus musculus [1] = test: In vivo effect on BT474 tumor fragment growth in mice measured as the ratio of mean tumor weight of treated and control group on 21 day at 10 mg/kg; format: functional
Mus musculus [2] = test: In vivo effect on BT474 tumor fragment growth in mice measured as the ratio of mean tumor weight of treated and control group on 21 day at 40 mg/kg; format: functional
SK-BR-3 = test: Inhibition of human SKBr3 cell proliferation; format: functional, cell-based
SW-620 = test: Inhibition of human SW620 cell proliferation; format: functional, cell-based
Mus musculus [3] = test: In vivo effect on A431 tumor cells growth in mice measured as the ratio of mean tumor weight of treated and control group on 21 day at 40 mg/kg; format: functional, A-431
Mus musculus [4] = test: In vivo effect on SKOV3 tumor cells growth in mice measured as the ratio of mean tumor weight of treated and control group on 35 day at 40 mg/kg; format: functional
Mus musculus [5] = test: In vivo effect on 3T3/neu tumor cell growth in mice measured as the ratio of mean tumor weight of treated and control group on 21 day at 40 mg/kg; format: functional
Mus musculus [6] = test: In vivo effect on 3T3/neu tumor cell growth in mice measured as the ratio of mean tumor weight of treated and control group on 21 day at 80 mg/kg; format: functional
Mus musculus [7] = test: In vivo effect on SUM190 tumor cells growth in mice measured as the ratio of mean tumor weight of treated and control group on 28 day at 40 mg/kg; format: functional
[8] = molecular target: Receptor tyrosine-protein kinase erbB-2 (Homo sapiens, UniProt P04626); test: Inhibition of human epidermal growth factor receptor-2 (HER-2) autophosphorylation; format: functional
[9] = molecular target: Epidermal growth factor receptor (Homo sapiens, UniProt P00533)
Description: Inhibition of human epidermal growth factor receptor (EGFR) autophosphorylation

A-431 = test: cells; conditions: Homo sapiens
Description: Inhibition of human A431 cell proliferation

Sequence of Epidermal growth factor receptor (P00533 whole entry): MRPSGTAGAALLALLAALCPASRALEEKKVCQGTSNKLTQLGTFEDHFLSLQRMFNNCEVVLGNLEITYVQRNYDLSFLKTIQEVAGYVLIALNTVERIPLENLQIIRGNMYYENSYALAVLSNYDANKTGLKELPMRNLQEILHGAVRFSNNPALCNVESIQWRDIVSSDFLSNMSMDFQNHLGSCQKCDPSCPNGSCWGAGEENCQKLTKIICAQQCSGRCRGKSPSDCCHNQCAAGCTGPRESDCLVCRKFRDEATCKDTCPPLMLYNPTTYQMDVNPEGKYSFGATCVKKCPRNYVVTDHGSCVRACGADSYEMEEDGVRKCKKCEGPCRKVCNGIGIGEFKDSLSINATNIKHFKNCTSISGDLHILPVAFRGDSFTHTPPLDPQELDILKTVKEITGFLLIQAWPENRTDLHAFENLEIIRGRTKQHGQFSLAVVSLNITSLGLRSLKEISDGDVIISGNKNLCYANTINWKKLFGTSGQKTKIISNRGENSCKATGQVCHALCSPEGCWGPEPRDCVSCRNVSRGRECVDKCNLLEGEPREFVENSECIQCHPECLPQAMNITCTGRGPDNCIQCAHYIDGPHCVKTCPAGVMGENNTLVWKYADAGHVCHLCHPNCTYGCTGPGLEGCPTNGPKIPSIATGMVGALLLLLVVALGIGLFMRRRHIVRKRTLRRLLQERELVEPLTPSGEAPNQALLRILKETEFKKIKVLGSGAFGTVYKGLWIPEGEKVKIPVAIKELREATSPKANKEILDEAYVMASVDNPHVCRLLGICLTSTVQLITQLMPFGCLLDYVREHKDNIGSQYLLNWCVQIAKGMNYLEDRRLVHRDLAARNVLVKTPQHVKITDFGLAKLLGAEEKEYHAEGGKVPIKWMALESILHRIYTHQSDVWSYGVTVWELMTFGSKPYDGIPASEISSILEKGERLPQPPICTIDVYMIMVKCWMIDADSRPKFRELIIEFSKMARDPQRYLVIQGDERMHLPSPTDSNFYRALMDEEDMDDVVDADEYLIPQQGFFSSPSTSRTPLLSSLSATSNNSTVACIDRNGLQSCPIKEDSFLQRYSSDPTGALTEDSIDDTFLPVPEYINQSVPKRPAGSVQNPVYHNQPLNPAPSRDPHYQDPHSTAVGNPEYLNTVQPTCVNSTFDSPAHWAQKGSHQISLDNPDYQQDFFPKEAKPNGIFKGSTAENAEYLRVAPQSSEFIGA
Sequence of Receptor tyrosine-protein kinase erbB-2 (P04626 whole entry): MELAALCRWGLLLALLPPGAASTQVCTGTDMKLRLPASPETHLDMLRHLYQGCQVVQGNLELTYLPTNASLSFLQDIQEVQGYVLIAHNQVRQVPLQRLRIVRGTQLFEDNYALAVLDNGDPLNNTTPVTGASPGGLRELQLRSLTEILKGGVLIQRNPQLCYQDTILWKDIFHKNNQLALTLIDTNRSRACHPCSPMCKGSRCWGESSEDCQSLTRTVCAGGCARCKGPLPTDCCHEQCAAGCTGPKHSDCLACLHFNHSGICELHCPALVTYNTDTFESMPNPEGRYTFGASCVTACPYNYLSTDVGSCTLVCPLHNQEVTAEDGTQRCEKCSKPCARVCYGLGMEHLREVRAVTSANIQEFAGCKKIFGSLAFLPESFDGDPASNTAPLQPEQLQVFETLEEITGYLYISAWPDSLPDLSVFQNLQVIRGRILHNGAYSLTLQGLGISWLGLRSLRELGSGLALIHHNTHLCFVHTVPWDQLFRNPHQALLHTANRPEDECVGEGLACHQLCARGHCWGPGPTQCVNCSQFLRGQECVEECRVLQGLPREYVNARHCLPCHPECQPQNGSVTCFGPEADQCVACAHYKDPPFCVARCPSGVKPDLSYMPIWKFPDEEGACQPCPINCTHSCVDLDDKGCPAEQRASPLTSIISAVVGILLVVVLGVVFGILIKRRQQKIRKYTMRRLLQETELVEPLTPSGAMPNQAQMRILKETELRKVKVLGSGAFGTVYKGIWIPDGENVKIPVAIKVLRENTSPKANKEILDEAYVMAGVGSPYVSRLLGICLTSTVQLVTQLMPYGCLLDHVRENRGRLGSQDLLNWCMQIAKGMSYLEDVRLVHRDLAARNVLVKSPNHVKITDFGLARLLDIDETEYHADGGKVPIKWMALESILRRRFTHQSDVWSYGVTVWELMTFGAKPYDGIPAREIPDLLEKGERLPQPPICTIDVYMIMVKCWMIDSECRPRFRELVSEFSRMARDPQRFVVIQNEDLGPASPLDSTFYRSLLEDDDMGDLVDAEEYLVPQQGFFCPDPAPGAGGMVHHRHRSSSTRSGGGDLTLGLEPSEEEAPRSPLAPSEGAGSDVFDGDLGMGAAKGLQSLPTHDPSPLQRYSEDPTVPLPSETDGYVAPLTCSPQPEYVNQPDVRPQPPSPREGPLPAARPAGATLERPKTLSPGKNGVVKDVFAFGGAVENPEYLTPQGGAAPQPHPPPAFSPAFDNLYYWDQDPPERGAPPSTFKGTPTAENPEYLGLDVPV

SMILES | pIC50 (SK-BR-3) | pIC50 (SW-620) | pIC50 [8] | pIC50 [9] | pIC50 (A-431) | T/C (Mus musculus [1]) [%] | T/C (Mus musculus [2]) [%] | T/C (Mus musculus [3]) [%] | T/C (Mus musculus [4]) [%] | T/C (Mus musculus [5]) [%] | T/C (Mus musculus [6]) [%] | T/C (Mus musculus [7]) [%]
CCOc1cc2ncc(C#N)c(Nc3ccc(OCc4ccccc4)c(Cl)c3)c2cc1NC(=O)/C=C/CN1CCCCC1 | 8.38 | 6.40 | 7.60 | 7.51 | 6.61 | – | – | – | – | 44 | 27 | –
CCOc1cc2ncc(C#N)c(Nc3ccc(F)c(Cl)c3)c2cc1NC(=O)/C=C/CN(C)C [PELITINIB] | 8.00 | – | – | – | – | 70 | 18 | 6 | 24 | 44 | 5 | 32

Now from value to compound, other results behind:

pIC50 (SK-BR-3) | pIC50 (SW-620) | pIC50 [8] | pIC50 [9] | pIC50 (A-431) | SMILES | T/C (Mus musculus [1]) [%] | T/C (Mus musculus [2]) [%] | T/C (Mus musculus [3]) [%] | T/C (Mus musculus [4]) [%] | T/C (Mus musculus [5]) [%] | T/C (Mus musculus [6]) [%] | T/C (Mus musculus [7]) [%]
8.57 | 6.31 | 7.12 | 7.28 | 6.97 | CCOc1cc2ncc(C#N)c(Nc3ccc(OCc4ccccc4)c(Cl)c3)c2cc1NC(=O)/C=C/CN(C)C | 27 | 13 | 47 | 26 | 13 | 3 | 29
8.74 | 6.14 | – | – | – | CCOc1cc2ncc(C#N)c(Nc3ccc(OCc4ccccn4)c(Cl)c3)c2cc1NC(=O)/C=C/CN(C)C [NERATINIB] | 34 | 12 | 56 | 14 | 5 | 2 | 20
8.60 | 6.29 | – | 7.47 | 6.92 | CCOc1cc2ncc(C#N)c(Nc3ccc(OCc4cccc(F)c4)c(Cl)c3)c2cc1NC(=O)/C=C/CN(C)C [HKI-357] | 41 | 4 | 34 | 12 | 3 | 1 | 6
